Measurements as given in patent US20250145606A1 (Arcus Biosciences, Inc., priority 2023, published 2025).
Where two headings read alike, the source gives them in different places. Marks after values point to notes of the source that are not given here.

Legend:
[1] = system: Phospho-KIT (Y703) in M07e cells; assay: Phospho-KIT (Y703) cellular assay in M07e cells; format: cell-based; conditions: M-07e, read-out: M07e Cell IC50
In short: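 Serum-starved M07e cells preincubated 50 min at 37° C with 11-point half-log compound titration, then stimulated 10 min with SCF at 90.9 ng/mL final. Fixed, permeabilized cells stained for phospho-KIT Y703 and read by flow cytometry (live-gated geometric mean); IC50 by 4-parameter fit normalized to DMSO and positive control.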

beagle dog hepatocytes = assay: Bioactivation assessment in dog hepatocytes; format: in vitro ADME; conditions: 5 μM, 4 hours
Experimental: Bioactivation Assessment Procedure
Pooled male Sprague Dawley rat (BioIVT), male beagle dog (BioIVT), male cynomolgus monkey (BioIVT), and a 50-donor pool of cryopreserved human hepatocytes (BioIVT) was thawed in pre-warmed 37° C. InVitroGro™ HT media (BioIVT), centrifuged, and resuspended in the InVitroGro™ HI media (BioIVT). The number of viable cells was determined by the Trypan blue exclusion method. The cells were diluted to a concentration of two million viable cells per milliliter (viability >80%) and seeded into round-bottom 96-well plates. The test articles were dissolved in DMSO and further diluted in 50% CH3CN and InVitroGro™ HI media with final concentrations of 0.05% DMSO and 0.5% CH3CN in the incubation mixture. Incubation was performed at a final concentration of one million cells per milliliter and 5 μM test compounds with continuous shaking at 1100 rpm in a 37° C., 5/95% CO2/air incubator with 100% relative humidity. After 4 hours, the samples were quenched by addition of 3 volumes of CH3CN, vortexed for 15 minutes, and centrifuged at 4200 rpm for 15 minutes at 10° C. (Sorvall Legend XTR centrifuge, Thermo Scientific, Langenselbold, Germany). 80 μL of the resulting supernatant was transferred into a new plate and mixed with 160 μL water followed by liquid chromatography-high resolution mass spectrometry (LC-HRMS) analysis.
Structural assignments of metabolites were determined through mass spectral analysis. The level of bioactivation was estimated based on the relative peak area of bioactivation products to all identified metabolites. The following equation was used: […]
Bioactivation products included glutathione conjugates, imine methides, quinones, diols, and other relevant metabolites.

[2] = phospho-KIT (Y703), SCF-stimulated M07e cells

SMILES	IC50 [1] [µM]	Percent of total metabolism via bioactivation, Dog hepatocytes (beagle dog hepatocytes)	IC50 [1, 2] [µM]	IC50 ([1]; Phospho-KIT (Y703), M07e cells) [µM]
Cc1ncc(C(=O)Nc2cc(C(=O)Nc3ccc(CC(F)(F)F)cn3)c(F)cc2C)s1 [Example 1, N-[4-Fluoro-2-methyl-5-[[5-(2,2,2-trifluoroethyl)pyridin-2-yl]carbamoyl]phenyl]-2-methyl-1,3-thiazole-5-carboxamide]	< 0.1	<1%^b		
Cc1ncc(C(=O)Nc2cc(C(=O)Nc3ccc(C4CC4)cn3)c(F)cc2C)s1 [Example 3, N-[5-[(5-Cyclopropylpyridin-2-yl)carbamoyl]-4-fluoro-2-methylphenyl]-2-methyl-1,3-thiazole-5-carboxamide]	< 0.1	2%		
Cc1ncc(C(=O)Nc2cc(C(=O)Nc3cnc(OCC(C)(F)F)cn3)c(F)cc2C)s1 [Example 4, N-[5-[[5-(2,2-Difluoropropoxy)pyrazin-2-yl]carbamoyl]-4-fluoro-2-methylphenyl]-2-methyl-1,3-thiazole-5-carboxamide]		<1%^a	< 0.1	
Cc1ncc(C(=O)Nc2cc(C(=O)Nc3ccc(CC4CC4)cn3)c(F)cc2C)s1 [Example 5, N-[5-[[5-(Cyclopropylmethyl)pyridin-2-yl]carbamoyl]-4-fluoro-2-methylphenyl]-2-methyl-1,3-thiazole-5-carboxamide]	< 0.1	4%		
Cc1ncc(C(=O)Nc2cc(C(=O)Nc3ccc(OC(F)F)cn3)c(F)cc2C)s1 [Example 38, N-[5-[[5-(difluoromethoxy)pyridin-2-yl]carbamoyl]-4-fluoro-2-methylphenyl]-2-methyl-1,3-thiazole-5-carboxamide]		<1%		< 0.1
Cc1ncc(C(=O)Nc2cc(C(=O)Nc3ccc(OC4CC4)cn3)c(F)cc2C)s1 [Example 2, N-[5-[(5-Cyclopropyloxypyridin-2-yl)carbamoyl]-4-fluoro-2-methylphenyl]-2-methyl-1,3-thiazole-5-carboxamide]		3-4%^a	< 0.1	
Cc1ncc(C(=O)Nc2cc(C(=O)Nc3ccc(CC(F)(F)F)cn3)c(F)cc2Cl)s1 [Example 46, N-[2-chloro-4-fluoro-5-[[5-(2,2,2-trifluoroethyl)pyridin-2-yl]carbamoyl]phenyl]-2-methyl-1,3-thiazole-5-carboxamide]		97%		< 0.1
